Data set [1] deals with T1, Tyrosine-protein kinase ABL1 (Homo sapiens, UniProt P00519). The data set can be described thus: Activation of full length human 6His-tagged c-Abl expressed in baculovirus expression system using abltide as substrate after 2 hrs by IMAP assay. The following applies: read-out: pIC50 (converted).
The target in data set [2] is Tyrosine-protein kinase ABL1 (Homo sapiens, UniProt P00519, D382N). As to the kind of experiment: Displacement of Myr-GQQPGKVLGDQRRPSL(K-TAMRA)G-amide from N-terminal-truncated human c-ABL D382N mutant (46 to 534 residues) after 30 mins by fluorescence polarization binding assay. In general terms: Fluorescence polarisation rises when a labelled molecule tumbles more slowly, as on binding a larger partner.
Chain of Tyrosine-protein kinase ABL1 (Homo sapiens, UniProt P00519, D382N) (P00519 as listed by the source D382N): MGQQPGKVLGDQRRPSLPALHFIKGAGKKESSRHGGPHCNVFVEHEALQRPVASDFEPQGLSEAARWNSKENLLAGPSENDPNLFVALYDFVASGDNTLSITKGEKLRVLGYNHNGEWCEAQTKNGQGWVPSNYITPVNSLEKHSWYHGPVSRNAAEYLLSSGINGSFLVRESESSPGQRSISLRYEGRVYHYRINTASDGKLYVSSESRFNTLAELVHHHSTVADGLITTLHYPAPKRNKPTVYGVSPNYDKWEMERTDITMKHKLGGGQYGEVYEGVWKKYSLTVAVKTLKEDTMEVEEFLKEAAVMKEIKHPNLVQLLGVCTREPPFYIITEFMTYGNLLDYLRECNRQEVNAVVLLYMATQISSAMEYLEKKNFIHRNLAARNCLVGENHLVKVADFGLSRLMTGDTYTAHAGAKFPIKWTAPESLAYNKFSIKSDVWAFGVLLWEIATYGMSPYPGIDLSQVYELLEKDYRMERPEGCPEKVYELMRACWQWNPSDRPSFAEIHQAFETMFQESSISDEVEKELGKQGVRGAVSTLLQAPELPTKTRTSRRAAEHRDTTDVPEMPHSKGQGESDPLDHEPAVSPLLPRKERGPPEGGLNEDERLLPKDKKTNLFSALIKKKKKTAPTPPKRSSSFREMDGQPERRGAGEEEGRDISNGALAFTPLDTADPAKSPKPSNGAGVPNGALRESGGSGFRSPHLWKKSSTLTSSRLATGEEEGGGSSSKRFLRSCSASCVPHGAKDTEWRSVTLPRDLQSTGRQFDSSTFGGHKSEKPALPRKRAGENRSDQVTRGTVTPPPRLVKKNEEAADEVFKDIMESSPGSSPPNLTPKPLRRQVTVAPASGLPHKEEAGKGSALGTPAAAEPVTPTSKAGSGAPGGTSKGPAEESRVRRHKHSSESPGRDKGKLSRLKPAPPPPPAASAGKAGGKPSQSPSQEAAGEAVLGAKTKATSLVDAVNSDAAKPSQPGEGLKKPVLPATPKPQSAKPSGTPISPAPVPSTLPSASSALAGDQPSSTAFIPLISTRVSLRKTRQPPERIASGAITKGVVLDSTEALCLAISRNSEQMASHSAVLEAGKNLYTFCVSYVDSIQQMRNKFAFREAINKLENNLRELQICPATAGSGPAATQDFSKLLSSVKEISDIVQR

Data set [3] deals with T1, Tyrosine-protein kinase ABL1. The data set can be described thus: Induction of human c-ABL phosphorylation at Y245/Y412 residues in bacmam-induced HEK-MSR2 cell lysates by in-cell Western blot analysis. It is filed as subcellular, Lysate.
Data set [4] is described as follows: Kinetic solubility of the compound at pH 7.4 after 1 hr by CLND-based assay. The following applies: buffer, read-out: Kinetic_solubility. The data set is classed as physicochemical.
Data set [5] can be described thus: Permeability of the compound at […] after 3 hrs by artificial membrane permeability assay. The following applies: PAMPA; read-out: permeability. The data set is classed as ADME. (The PAMPA barrier holds no transporters, so it reflects passive diffusion.)

pEC50, pIC50: −log10 of the molar value. ≈ marks a conversion by molar mass, not a printed value.

One may read the pIC50 as the negative decadic logarithm of the IC50, by convention in mol/L. Read a low pIC50 as a large IC50. By pEC50 is commonly meant the EC50 on a negative log10 scale, so that one unit is a factor of ten. Read a low pEC50 as a high EC50.

T1 sequence (P00519 whole entry, the tested form may be a part): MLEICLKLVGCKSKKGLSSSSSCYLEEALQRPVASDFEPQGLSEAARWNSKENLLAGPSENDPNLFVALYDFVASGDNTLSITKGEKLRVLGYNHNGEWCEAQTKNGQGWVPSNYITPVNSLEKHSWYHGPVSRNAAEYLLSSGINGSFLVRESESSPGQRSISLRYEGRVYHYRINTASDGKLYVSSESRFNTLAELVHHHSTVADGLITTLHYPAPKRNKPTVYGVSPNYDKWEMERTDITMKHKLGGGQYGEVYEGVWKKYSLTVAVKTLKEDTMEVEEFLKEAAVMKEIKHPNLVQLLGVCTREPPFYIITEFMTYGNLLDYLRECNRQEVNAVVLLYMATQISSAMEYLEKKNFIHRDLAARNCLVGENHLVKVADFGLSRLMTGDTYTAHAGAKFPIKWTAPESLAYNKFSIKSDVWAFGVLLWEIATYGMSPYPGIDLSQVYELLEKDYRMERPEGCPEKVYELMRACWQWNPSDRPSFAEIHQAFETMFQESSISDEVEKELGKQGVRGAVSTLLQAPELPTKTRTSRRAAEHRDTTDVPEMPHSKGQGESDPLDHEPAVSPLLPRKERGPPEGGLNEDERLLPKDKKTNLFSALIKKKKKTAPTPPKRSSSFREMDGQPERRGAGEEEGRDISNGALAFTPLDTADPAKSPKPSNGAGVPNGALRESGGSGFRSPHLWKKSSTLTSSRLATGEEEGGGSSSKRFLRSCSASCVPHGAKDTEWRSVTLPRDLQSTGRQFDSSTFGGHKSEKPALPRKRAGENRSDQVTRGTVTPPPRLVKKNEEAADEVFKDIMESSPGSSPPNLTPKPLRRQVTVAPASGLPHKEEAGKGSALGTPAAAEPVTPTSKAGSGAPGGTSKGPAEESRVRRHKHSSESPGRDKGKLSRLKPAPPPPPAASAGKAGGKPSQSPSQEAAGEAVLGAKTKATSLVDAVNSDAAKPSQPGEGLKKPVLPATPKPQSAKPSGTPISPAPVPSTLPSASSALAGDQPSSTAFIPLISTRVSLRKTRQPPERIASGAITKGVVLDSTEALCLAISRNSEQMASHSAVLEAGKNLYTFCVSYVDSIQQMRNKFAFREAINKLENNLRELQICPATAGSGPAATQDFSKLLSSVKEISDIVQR

Turning to `CC(=O)NC1=NN(c2ccc(Cl)c(Cl)c2)CC1`, the EC50 for c-Abl activation in data set [1] was 316 nM. The same compound had a pIC50 in data set [2] of 6.40. Also, the pEC50 in data set [3] was 6.10. Moreover, in data set [4], the solubility kinetic at 1 h was found to be 31 µM (≈ 8.44 µg/mL). For the same compound, the Papp at 3 h in data set [5] was 36 ×10⁻⁶ cm/s.
For `O=C(NC1=NN(c2ccc(Cl)c(Cl)c2)CC1)c1cccnc1F`, in that order: 126 nM, 6.40, 5.90, 13 µM (≈ 4.59 µg/mL) and 57 ×10⁻⁶ cm/s.
For the compound `O=C(Nc1nc(-c2ccc(Cl)c(Cl)c2)cs1)c1c(F)cccc1F`, the EC50 for c-Abl activation in data set [1] was 251 nM. The compound further showed a pIC50 in data set [2] of 6.50. This compound showed a negative-log EC50 (pEC50) in data set [3] of 5.30. Moreover, in data set [4], the solubility kinetic at 1 h worked out at 5 µM (≈ 1.93 µg/mL). Also, in data set [5], the Papp at 3 h is below 3 ×10⁻⁶ cm/s.
The matching figures for `CC(=O)Nc1nc(-c2ccc(Br)s2)cs1`: 12600 nM, 5.30, below 4.30, 16 µM (≈ 4.85 µg/mL) and 21 ×10⁻⁶ cm/s.
For `CC(=O)Nc1nc(-c2ccc(Cl)c(Cl)c2)cs1`, in that order: 2510 nM, 6.50, 4.50, below 1 µM and 19.6 ×10⁻⁶ cm/s.
For `N#CCC(=O)Nc1nc(-c2ccc(Cl)c(Cl)c2)cs1`, in that order: 1260 nM, 6.30, 5.30, 57 µM (≈ 17.8 µg/mL) and 14.2 ×10⁻⁶ cm/s.
With `O=C(NC1=NN(c2ccc(Cl)c(Cl)c2)CC1)c1ccnnc1`, the EC50 for c-Abl activation in data set [1] is 251 nM. The compound also gave a pIC50 in data set [2] of 6.30. Moreover, the pEC50 in data set [3] is 6.30. Also, the solubility kinetic at 1 h in data set [4] was 23 µM (≈ 7.73 µg/mL). In addition, in data set [5], the Papp at 3 h was found to be 36 ×10⁻⁶ cm/s.
With `N#CCC(=O)Nc1ccn(-c2ccc(Cl)c(Cl)c2)n1`, in data set [1], the EC50 for c-Abl activation is 2510 nM. Besides, the pIC50 in data set [2] is 5.80. This compound showed a pEC50 in data set [3] of 5.10. Also, in data set [4], the solubility kinetic at 1 h was 34 µM (≈ 10 µg/mL). The Papp at 3 h in data set [5] came to 31 ×10⁻⁶ cm/s.
The matching figures for `N#CCC(=O)NC1=NN(c2ccc(Cl)c(Cl)c2)CC1`: 251 nM, 6.40, 6.00, 202 µM (≈ 60 µg/mL) and 32 ×10⁻⁶ cm/s.
Regarding `CC(=O)Nc1nc(-c2nc(C)no2)cs1`, the EC50 for c-Abl activation in data set [1] is above 100000 nM. This compound gave a pIC50 in data set [2] below 4.30. Moreover, in data set [4], the solubility kinetic at 1 h came out at 186 µM (≈ 41.7 µg/mL). Also, the Papp at 3 h in data set [5] amounted to 25 ×10⁻⁶ cm/s.
In data set [2], `CC(=O)NC1=NN(c2ccc(Cl)c(Cl)c2)C[C@H]1C` showed a negative-log IC50 (pIC50) of 5.40. In addition, the negative-log EC50 (pEC50) in data set [3] was 4.70. The solubility kinetic at 1 h in data set [4] came out at 36 µM (≈ 10.3 µg/mL). The Papp at 3 h in data set [5] came out at 38 ×10⁻⁶ cm/s.
In the case of `CS(=O)(=O)Nc1nc(-c2ccc(Cl)c(Cl)c2)cs1`, the EC50 for c-Abl activation in data set [1] was 25100 nM. Besides, in data set [2], the negative-log IC50 (pIC50) is below 4.30. The pEC50 in data set [3] was below 4.30. In addition, the solubility kinetic at 1 h in data set [4] is 429 µM (≈ 139 µg/mL). Also, in data set [5], the Papp at 3 h amounted to 22 ×10⁻⁶ cm/s.
On to `O=C(NC1=NN(c2ccc(Cl)c(Cl)c2)CC1)c1ccncc1`, for which, in data set [1], the EC50 for c-Abl activation was 200 nM. In addition, in data set [2], the negative-log IC50 (pIC50) was 6.50. Also, in data set [3], the negative-log EC50 (pEC50) is 5.80. The solubility kinetic at 1 h in data set [4] turned out to be 9 µM (≈ 3.02 µg/mL). In addition, in data set [5], the Papp at 3 h worked out at 30.3 ×10⁻⁶ cm/s.
For `C[C@H]1CN(c2ccc(Cl)c(Cl)c2)N=C1NC(=O)c1cncnc1`, in that order: 20 nM, 6.50, 7.00, 9 µM (≈ 3.15 µg/mL) and 42 ×10⁻⁶ cm/s.
The matching figures for `O=C(NC1=NN(c2ccc(Cl)c(Cl)c2)CC1)c1ccccn1`: 2000 nM, 5.70, below 4.30, 11 µM (≈ 3.69 µg/mL) and 35 ×10⁻⁶ cm/s.
The matching figures for `CC(=O)N[C@@H](C)C(=O)NC1=NN(c2ccc(Cl)c(Cl)c2)CC1`: 1580 nM, 5.90, 5.10, 58 µM (≈ 19.9 µg/mL) and 34 ×10⁻⁶ cm/s.
For `O=C(NC1=NN(c2ccc(Cl)c(Cl)c2)CC1)c1cccnc1`, the EC50 for c-Abl activation in data set [1] was 158 nM. For the same compound, in data set [2], the negative-log IC50 (pIC50) is 6.60. The pEC50 in data set [3] was 6.20. Further, the solubility kinetic at 1 h in data set [4] was 4 µM (≈ 1.34 µg/mL). In addition, the Papp at 3 h in data set [5] amounted to 30.5 ×10⁻⁶ cm/s.
Turning to `N#CCC(=O)Nc1csc(-c2ccc(Cl)c(Cl)c2)c1`, in data set [1], the EC50 for c-Abl activation was 15800 nM. The compound further gave a pIC50 in data set [2] of 5.40. Moreover, the pEC50 in data set [3] is below 4.30. Moreover, the solubility kinetic at 1 h in data set [4] was 10 µM (≈ 3.11 µg/mL). The Papp at 3 h in data set [5] was determined as 12 ×10⁻⁶ cm/s.
For `Cc1ncncc1C(=O)NC1=NN(c2ccc(Cl)c(Cl)c2)CC1`, in that order: 39.8 nM, 6.80, 6.50, 12 µM (≈ 4.2 µg/mL) and 34 ×10⁻⁶ cm/s.

For the origin of these results see ChEMBL document CHEMBL4411335, “Identification and Optimization of Novel Small c-Abl Kinase Activators Using Fragment and HTS Methodologies” (J Med Chem, 2019).
